Two compounds from patent US4758586A, “Indolyl compounds and hyposensitivity use thereof” (USV Pharmaceutical Corp., priority 1986, dated 1988) can be followed below.

The target of one assay is T1, Phospholipase A2 (PLA2) (Rattus norvegicus, UniProt P14423).
T1 construct: obtained by aggregation of purified rat platelets; from tissue; host or cells: rat platelets (enzyme obtained by aggregation)
T1 sequence (P14423 22-146): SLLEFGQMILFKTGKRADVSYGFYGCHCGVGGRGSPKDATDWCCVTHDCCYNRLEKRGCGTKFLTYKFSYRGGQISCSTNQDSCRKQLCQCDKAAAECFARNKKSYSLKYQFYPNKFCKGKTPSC
Description: In vitro assay for inhibitors of Phospholipase A2 (PLA2) from rat platelets. The class given is biochemical. The source says: B. In Vitro Assay For Inhibitors of Phospholipase A2 Assayed at pH 7.0 (PLA2)
The PLA2 employed in this screen is obtained by aggregation of purified rat platelets. In the enzyme assay phosphatidylcholine having ^14 C-labeled palmitate residues at R1 and R2 is employed as substrate. PLA2 acts by cleaving the R2 fatty acid ester bond yielding free fatty acid and lysophosphatidyl choline as follows: [drawing 19]
Following completion of the reaction, the assay medium is acidified and extracted with hexane, which takes up unreacted substrate and free fatty acid product. The hexane extract is passed over a short silica column which retains 99% of the phosphatidyl choline. The ^14 C-labeled palmitic acid is not retained (90% recovery in eluate) and is collected directly in scintillation counting vials. The released palmitic acid is conveniently quantitated by liquid scintillation spectrometry.
The compounds were tested at 100 uM in a buffer containing 0.3 mM unlabeled phosphatidylcholine (PC), 20-30,000 cpm of ^14 C(CPC), […], 1 mM CaCl2 and 50 mM tris-HCl adjusted to pH 7.2 with 1N NaOH. […] The temperature of the buffer was maintained at a temperature of 37° C. The reaction was initiated by addition of the enzyme and it was terminated 30 minutes later by the addition of […] of 1N HCl.
Following acidification, the samples were extracted with 2 ml of 2-propanol and 2 ml of hexane, vortexed and allowed to stand until the phases separated. Free fatty acids (FFA) and some unreacted substrate were taken up in the isopropanol-saturated hexane. The hexane phase of the extraction mixture was transferred to a short silica gel column which retained […] but not the FFA. The column effluent was collected directly in scintillation vials. The columns were washed once with an additional 2 ml of hexane. The radio labeled FFA were quantitated by liquid scintillation spectrometry.

The next assay relates to Phospholipase C (PLC). Description: In vitro assay for inhibitors of Phospholipase C (PLC) from rat platelets. It is filed as biochemical. The source says:
A. Protocol For In Vitro Assay For Inhibitors Of Phospholipase C (PLC)
The PLC employed in this screen is obtained by aggregation of purified rat platelets in the presence of CaCl2 and ADP. In the enzyme assay phosphatidylinositol having ^3 H -labeled arachidonate residues at R2 is employed as substrate. PLC acts by cleaving the phosphate ester bond yielding diglyceride as follows: [drawing 18]
Following completion of the reaction, the assay medium is acidified and extracted with hexane which takes up unreacted substrate and diglyceride. The hexane extract is passed over a short silica gel column which retains 99% of the phosphatidylinositol. The ^3 H-labeled diglyceride is not retained […]. The diglyceride is conveniently quantitated by liquid scintillation spectrometry.
The compounds were tested at 300 u in a buffer containing 0.06 mM unlabeled phosphatidylcholine (PC), 20-30,000 cpm of (CPC), 150 mM NaCl, 5 mM CaCl2 and 50 mM tris(hydroxymethyl)methylaminopropanesulfonic acid buffer, adjusted to pH 9.0 with 1N NaOH. The temperature of the buffer was maintained at a temperature of 37° C. The reaction was initiated by addition of the enzyme and it was terminated 10 minutes later by addition of 1 ml of 1N HCl.
Following acidification, the samples were extracted with 2 ml of isopropyl alcohol and 2 ml of hexane, vortexed and allowed to stand until the phases separate. […] and some unreacted substrate were taken up in the isopropanol-saturated hexane. The hexane phase of the extraction mixture was transferred to a short silica gel column which retains unreacted phosphatidylinositol, but not the 3H-diglyceride. The column effluent was collected directly in scintillation vials. The columns were washed once with additional 2 ml of hexane. The radiolabelled diglycerides were quantitated by liquid scintillation.

Another assay concerns the target T2, 5-lipoxygenase (Rattus norvegicus, UniProt P12527).
T2 construct: A suspension of rat neutrophils in buffer; endogenous in cells; host or cells: rat neutrophils (PMN)
T2 sequence (P12527 1-673): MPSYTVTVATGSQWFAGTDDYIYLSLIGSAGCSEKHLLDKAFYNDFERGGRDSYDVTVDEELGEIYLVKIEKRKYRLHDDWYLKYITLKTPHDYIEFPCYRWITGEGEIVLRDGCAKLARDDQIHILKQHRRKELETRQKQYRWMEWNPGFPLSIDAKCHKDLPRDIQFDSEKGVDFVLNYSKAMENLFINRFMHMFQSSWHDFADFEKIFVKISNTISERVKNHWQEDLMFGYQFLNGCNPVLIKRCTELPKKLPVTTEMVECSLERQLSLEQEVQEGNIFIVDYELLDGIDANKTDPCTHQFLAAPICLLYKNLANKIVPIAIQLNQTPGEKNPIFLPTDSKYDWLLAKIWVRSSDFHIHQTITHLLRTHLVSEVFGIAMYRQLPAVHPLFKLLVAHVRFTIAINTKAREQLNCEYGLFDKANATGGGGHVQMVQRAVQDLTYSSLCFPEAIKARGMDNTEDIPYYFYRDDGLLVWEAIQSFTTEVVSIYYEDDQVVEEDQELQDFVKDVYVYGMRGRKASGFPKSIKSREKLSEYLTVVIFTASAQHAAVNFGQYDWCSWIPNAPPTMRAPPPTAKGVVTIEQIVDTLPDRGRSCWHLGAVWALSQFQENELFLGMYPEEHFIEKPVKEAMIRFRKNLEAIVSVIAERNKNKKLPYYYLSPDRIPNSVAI
Nature of the assay: Protocol for detecting inhibitors of the lipoxygenase pathway (5-HETE formation in rat neutrophils). The class given is cell-based. Particulars: Formula III, n=1 compounds; read-out: LOX I50 (Table 5). On the procedure: Protocol for Detecting Inhibitors of the Lipoxygenase Pathway
A suspension of rat neutrophils in buffer is incubated for 3 minutes at 30° C. with [^14 C]-arachidonic acid (AA) and Calcium Ionophore A23187. Citric acid (2M) is used to quench the reaction. Following the addition of a trace amount of (^3 H)-5-HETE together with an excess of unlabeled 5-HETE to each tube, the mixture is extracted with chloroform/methanol. The organic layer is washed with dilute acid and an aliquot is transferred to glass tubes and dried. The residue is dissolved in a small volume of chloroform and an aliquot is spotted on silica get TLC sheets, which are developed with an ethyl acetate/isooctane/water acetic acid solvent system. The 5-HETE spots are visualized with iodine, cut out and placed in scintillation vials for counting. After adjusting for the extraction efficiency, the amount (pmole) of [^14 C]-5-HETE in each of the tubes is quantitated. The net pmoles of 5-HETE are obtained by subtracting the pmoles of 5-HETE in the tubes containing […]. The ability of the test compounds to modulate the activity of this enzyme is determined by a decrease or increase in the net amount of 5-HETE produced.

Assay [1] concerns leukotriene C4 -induced contraction of guinea pig peripheral strips. Description: SRS-A antagonists (SALTI): leukotriene C4-induced contraction of guinea pig peripheral lung strips. Particulars: Cavia porcellus; 0.2 μM leukotriene C4-induced contraction; read-out: SALTI, I50 μM. The procedure: Protocol for SRS-A (Slow-reacting Substance of Anaphylaxis Antagonists (SALTI)
Peripheral strips of guinea pig lungs are prepared and hung in tissue baths (Metro #ME-5505, 10 ml) according to the published procedure (Pro. Nat'l. Acad. Sci., U.S.A. Volume 77, pp. 4354-4358, 1980). The strips are thoroughly rinsed in Assay Buffer and then connected with surgical silk thread to the support rods from the tissue baths. The rods are adjusted in the baths and the strips connected to the pressure transducers (Grass FT 103 or Gould UC-3). The tissue baths are aerated with 95% oxygen 5% carbon dioxide and maintained at 37° C. The Assay Buffer has been made as follows: For each liter of buffer the following are added to approximately 800 ml of water distilled in glass--6.87 g. NaCl, 0.4 g. KCl, […]. NaHCO3, 0.14 g. NaH2 PO4.H2 O, 0.21 g. MgSO4.7H2 O, and 2.0 g. D-glucose. Then a solution of 0.368 g. CaCl2.2H2 O in 100 ml glass-distilled water is slowly added to the buffer. Sufficient water is added to adjust the volume to one liter, and the solution is aerated with 95% oxygen--5% carbon dioxide. Usually 10 liters of buffer are used for an experiment with 4 tissues.
After the tissues have been repeatedly washed and allowed to equilibrate in the tissue bath, they are challenged with 1 μM histamine. After maximum contractions have been obtained, the tissues are washed, and allowed to relax back to baseline tension. This histamine challenge procedure is repeated at least 1 to 2 more times to obtain a repeatable control response. The average response to 1 μM histamine for each tissue is used to normalize all other challenges.
Responses of each tissue to a predetermined concentration of leukotriene are then obtained. Usually test compounds are examined initially at 30 μM on resting tension of the tissues without any added agonist or antagonist to determine if the compound has any possible intrinsic activity. The tissues are washed, and the test compound is added again. Leukotriene is added after the desired pre-incubation time. The intrinsic activity of the compounds, and their effect on leukotriene-induced contractions are then recorded.
The concentration required for 50% inhibition of 0.2 μM leukotriene C4 -induced contraction of guinea pig peripheral strips for representative compounds of the present invention is shown in Table 3.

Take `CCOC(=O)C=Cc1c[nH]c2ccccc12` [Ethyl β-(indol-3-yl)acrylate, reference compound]: the “PLA2 activity class (Table 5)” value at Phospholipase A2 (PLA2) (at level tested (100 uM)) is on record as “I”. In addition, in the assay with Phospholipase C (PLC) (at level tested (300 u)), the “PLC activity class (Table 5)” value is listed as “I”. In addition, the IC50 at 5-lipoxygenase is 8 µM.
Consider `Cc1c(C=CC=CC(=O)O)c2ccccc2n1Cc1ccccc1` [Example 12, 5-(1-Benzyl-2-methylindol-3-yl)-2,4-Pentadienoic Acid], for which the IC50 turned out to be 37 µM at Phospholipase A2 (PLA2) (pH 7.2, 37° C., read-out: PLA2, I50); 15 µM in assay [1]; 40 µM in the assay with Phospholipase C (PLC) (read-out: PLC, I50).
